The record followed here is US20020028809A1 (SUNTORY LIMITED, priority 1999, published 2002).

Assay [1] has as its target T1, α1β1γδ subtype of nicotinic acetylcholine receptors (Rattus norvegicus, UniProt P18916+P25108+P25109+P25110).
T1 construct: Native receptor, no construct: "Triton X100 (2% w/v) was added
The assay is described as follows: Binding assays at α1β1γδ subtype of nicotinic acetylcholine receptors ([3H]-α-bungarotoxin, rat muscle extract). Conditions: for remaining activity at 100 µM / remaining activity at 1000 µM: read-out: control % of [3H]-α-Bgt binding.

In assay [2] the target is T2, α4β2 subtype of nicotinic acetylcholine receptors (Rattus norvegicus, UniProt P09483+P12390).
T2 construct: examined using rat brain membrane obtained from whole homogenized brain; from tissue; host or cells: whole brain of Fischer-344 male rats, membrane pellet
T2 sequence (P09483 31-630): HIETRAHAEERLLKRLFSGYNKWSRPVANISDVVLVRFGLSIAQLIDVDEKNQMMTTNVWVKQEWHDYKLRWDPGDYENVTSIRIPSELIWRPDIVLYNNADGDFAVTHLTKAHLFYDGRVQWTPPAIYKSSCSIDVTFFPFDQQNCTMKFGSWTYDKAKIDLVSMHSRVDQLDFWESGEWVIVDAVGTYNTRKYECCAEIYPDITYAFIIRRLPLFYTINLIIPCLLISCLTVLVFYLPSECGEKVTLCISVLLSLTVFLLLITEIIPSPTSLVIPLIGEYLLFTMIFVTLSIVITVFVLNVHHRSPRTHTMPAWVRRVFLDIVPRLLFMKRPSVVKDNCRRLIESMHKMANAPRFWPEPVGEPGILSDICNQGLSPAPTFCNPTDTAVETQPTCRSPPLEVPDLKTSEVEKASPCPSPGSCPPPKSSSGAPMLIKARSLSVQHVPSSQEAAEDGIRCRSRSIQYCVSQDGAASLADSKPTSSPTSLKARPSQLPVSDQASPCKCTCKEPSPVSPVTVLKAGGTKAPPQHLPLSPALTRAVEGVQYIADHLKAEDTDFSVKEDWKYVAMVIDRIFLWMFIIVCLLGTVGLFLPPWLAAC
T2 sequence (P12390 25-500): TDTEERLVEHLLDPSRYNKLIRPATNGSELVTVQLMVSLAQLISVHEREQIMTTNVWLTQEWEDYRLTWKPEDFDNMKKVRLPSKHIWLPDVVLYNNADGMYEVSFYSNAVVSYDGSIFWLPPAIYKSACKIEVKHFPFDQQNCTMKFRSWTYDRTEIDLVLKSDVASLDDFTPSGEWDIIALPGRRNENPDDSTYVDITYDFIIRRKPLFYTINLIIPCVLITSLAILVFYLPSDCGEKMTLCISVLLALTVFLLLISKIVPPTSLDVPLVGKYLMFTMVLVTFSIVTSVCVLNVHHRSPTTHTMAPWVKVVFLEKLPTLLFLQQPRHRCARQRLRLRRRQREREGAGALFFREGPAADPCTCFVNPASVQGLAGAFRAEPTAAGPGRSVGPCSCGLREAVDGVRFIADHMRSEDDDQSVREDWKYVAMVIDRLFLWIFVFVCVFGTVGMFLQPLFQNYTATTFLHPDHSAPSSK
The assay can be described thus: Binding assays at α4β2 subtype of nicotinic acetylcholine receptors ([3H]-cytisine, rat brain membrane).

Where [3] appears, read: rat brain membrane, [3H]-cytisine (2 nM), read-out: Affinities for receptors Ki α4β2.

The structures appear in SMILES notation. Read-outs that look alike come from different tables or passages of the source.

T1 sequence (P25108 21-457): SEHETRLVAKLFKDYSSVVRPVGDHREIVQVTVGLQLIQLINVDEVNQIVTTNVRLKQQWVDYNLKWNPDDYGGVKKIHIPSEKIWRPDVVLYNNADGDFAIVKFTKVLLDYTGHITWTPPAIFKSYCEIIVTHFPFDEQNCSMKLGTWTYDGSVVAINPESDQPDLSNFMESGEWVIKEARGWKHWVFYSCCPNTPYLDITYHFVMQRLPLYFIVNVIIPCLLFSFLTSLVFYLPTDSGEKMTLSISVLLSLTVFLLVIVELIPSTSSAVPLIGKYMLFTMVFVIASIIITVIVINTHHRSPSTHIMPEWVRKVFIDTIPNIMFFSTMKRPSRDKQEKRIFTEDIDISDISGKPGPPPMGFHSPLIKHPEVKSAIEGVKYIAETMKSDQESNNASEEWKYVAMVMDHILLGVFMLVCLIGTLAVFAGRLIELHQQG
T1 sequence (P25110 22-517): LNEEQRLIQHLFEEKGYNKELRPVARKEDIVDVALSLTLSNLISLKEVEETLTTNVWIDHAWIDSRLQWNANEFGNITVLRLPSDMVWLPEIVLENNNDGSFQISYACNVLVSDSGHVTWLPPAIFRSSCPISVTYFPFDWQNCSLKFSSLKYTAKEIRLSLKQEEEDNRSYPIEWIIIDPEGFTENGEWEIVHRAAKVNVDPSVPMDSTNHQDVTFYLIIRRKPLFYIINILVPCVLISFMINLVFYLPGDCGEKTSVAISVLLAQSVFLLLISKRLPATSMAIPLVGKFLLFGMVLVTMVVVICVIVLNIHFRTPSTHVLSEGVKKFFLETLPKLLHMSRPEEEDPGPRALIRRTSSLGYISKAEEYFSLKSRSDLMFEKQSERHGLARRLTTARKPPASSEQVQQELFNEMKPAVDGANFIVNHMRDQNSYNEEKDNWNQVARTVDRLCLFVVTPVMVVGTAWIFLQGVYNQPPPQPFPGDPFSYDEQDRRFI
T1 sequence (P25109 24-501): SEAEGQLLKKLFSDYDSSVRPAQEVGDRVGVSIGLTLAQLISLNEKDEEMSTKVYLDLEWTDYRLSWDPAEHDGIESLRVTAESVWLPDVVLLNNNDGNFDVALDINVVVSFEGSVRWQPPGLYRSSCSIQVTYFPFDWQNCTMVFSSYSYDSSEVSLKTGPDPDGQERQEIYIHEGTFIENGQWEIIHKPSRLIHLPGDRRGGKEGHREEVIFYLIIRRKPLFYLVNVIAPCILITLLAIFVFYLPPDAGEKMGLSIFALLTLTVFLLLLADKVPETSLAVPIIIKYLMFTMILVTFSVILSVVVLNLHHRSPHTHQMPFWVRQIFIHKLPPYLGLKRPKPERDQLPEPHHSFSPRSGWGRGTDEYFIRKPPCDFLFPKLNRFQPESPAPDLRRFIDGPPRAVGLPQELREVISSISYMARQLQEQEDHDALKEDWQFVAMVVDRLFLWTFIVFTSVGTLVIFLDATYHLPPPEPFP

Regarding `N=C1SCCN1Cc1ccc(Cl)nc1` [Compound 5, 3-(6-chloro-3-pyridyl)methyl-2-iminothiazolidine], the Ki was 7650 nM in assay [1] and 2.2 nM in assay [2] (setting [3]).

For the compound `N=c1ccccn1Cc1ccc(Cl)nc1` [Compound 7, 1-(6-chloro-3-pyridyl)methyl-2-imino-1,2-dihydropyridine], the Ki in assay [1] amounted to 71200 nM; in assay [2] (setting [3]), 3.1 nM.

Regarding `N=c1sccn1Cc1ccc(Cl)nc1` [Compound 8, 3-(6-chloro-3-pyridyl)methyl-2-imino-2,3-dihydrothiazole], the values for the Ki in assay [1] and in assay [2] (setting [3]) were 10200 nM and 0.5 nM, respectively.

On to `Nc1nccn1Cc1ccc(Cl)nc1` [Compound 9, 2-amino-1-(6-chloro-3-pyridyl)methylimidazole], for which, in assay [1], the remaining activity at 100 µM came to 86% and the remaining activity at 1000 µM worked out at 49%. Besides, the inhibition constant (Ki) in assay [2] (setting [3]) was determined as 22.2 nM.

For `N=c1sccn1Cc1ccc(Br)nc1` [Compound 11, 3-(6-bromo-3-pyridyl)methyl-2-imino-2,3-dihydrothiazole], in assay [1], the remaining activity at 100 µM is 13% and the remaining activity at 1000 µM was determined as 5%. The compound also had an inhibitory constant (Ki) in assay [2] of 0.63 nM.

Regarding `N=c1sccn1Cc1ccc(F)nc1` [Compound 12, 3-(6-fluoro-3-pyridyl)methyl-2-imino-2,3-dihydrothiazole], in assay [1], the remaining activity at 100 µM was 20% and the remaining activity at 1000 µM is -2%. This compound came in with an inhibition constant Ki in assay [2] of 1.89 nM.

In the case of `N=C1NCCN1Cc1ccc(Cl)nc1` [Compound 13, 1-(6-Chloro-3-pyridyl)methyl-2-iminoimidazolidine], in assay [1], the remaining activity at 100 µM came out at 26% and the remaining activity at 1000 µM is 8%. Also, in assay [2] (setting [3]), the Ki is 4.6 nM.

On to `N=C1CCCN1Cc1ccc(Cl)nc1` [Compound 14, 1-(6-Chloro-3-pyridyl)methyl-2-iminopyrrolidine], for which, in assay [1], the remaining activity at 100 µM is 14% and the remaining activity at 1000 µM was found to be 0%. Also, the Ki in assay [2] (setting [3]) came to 1.9 nM.

Consider `N=C1SCCN1Cc1ccc(Cl)cc1` [Compound 31, 3-(4-chlorobenzyl)-2-iminothiazolidine], for which, in assay [1], the remaining activity at 100 µM stood at 37% and the remaining activity at 1000 µM turned out to be 10%. The compound further had an inhibition constant (Ki) in assay [2] of 93 nM.

For `N=C1SCCN1Cc1ccnnc1` [Compound 33, 2-imino-3-(4-pyridazinyl)methylthiazolidine], in assay [1], the remaining activity at 100 µM turned out to be 15% and the remaining activity at 1000 µM stood at 1%. Further, the inhibitory constant (Ki) in assay [2] was found to be 32 nM.

Take `N=C1SCCN1Cc1cnc(Cl)s1` [Compound 34, 3-(2-chloro-5-thiazolyl)methyl-2-iminothiazolidine]: in assay [1], the remaining activity at 100 µM was found to be 14% and the remaining activity at 1000 µM was -1%. Moreover, the Ki in assay [2] came out at 4.9 nM.

Turning to `N=c1ccc(-c2ccccc2)nn1Cc1ccc(Cl)nc1` [Compound 44, 2-(6-chloro-3-pyridyl)methyl-3-imino-6-phenyl-2,3-dihydropyridazine], in assay [1], the remaining activity at 100 µM is 80% and the remaining activity at 1000 µM amounted to 26%. Further, affinity in assay [2] was put at a Ki of 64 nM.

As for `Nc1nccn1Cc1cccnc1` [Compound 55, 2-amino-i-(3-pyridyl)methylimidazole], the Ki was 66000 nM in assay [1] (rat muscle extract, [3H]-α-Bgt (1 nM), read-out: Affinities for receptors Ki α1β1γδ) and 43 nM in assay [2] (setting [3]).
